{
  "source": "patent US11260066B2",
  "about": "“Inhibiting reduction of lean body mass and inhibiting accumulation of liver fat by administering allulose” (SAMYANG CORPORATION, priority 2017, dated 2022)",
  "key": {"[1]": {"assay": "Body fat and lean body mass measured by DXA, 12-week human application test", "assay_type": "in vivo", "details": "for Lean, 12 W, Mean / Fat, Difference (average change at 12 weeks compared to base time) / Lean, Difference (12 W vs baseline): ITT 33; for Fat, 12 W, Mean: ITT 33 overweight/obese adults", "procedure": "After conducting a screening test for those who heard the detailed description of the purpose and research method of the present example and agreed in writing as subjects, those who met the selection/exclusion criteria were selected. The specific selection criteria are as follows, and the final selected subjects are 99 men and women who are overweight or obese, and the demographic information of the selected subjects is shown in the following Table 1. The efficacy test was performed by dividing 99 selected test subjects into 3 groups, and by providing three products to the high-dose group (33 people), low-dose group (33 people), and control group (33 people), respectively. The allulose high-dose product was provided to the high-dose test group, and the allulose low-dose product was provided to the low-dose test group, and placebo product was provided to the control group. Ninety nine (99) subjects were randomly assigned to the high-dose group, low-dose group or control group, with including 33 subjects in each test group. In three test groups, the products were mixed in 100 ml of water and were administered orally twice a day. As the daily dose for one test subject, 12 g allulose in the high-dose group, 6 g allulose and 6 g anhydrous glucose in the low-dose group, and 12 g anhydrous glucose in the control group were divided and provided twice a day. It was administered from the day after the random assignment day (0 day), and was taken with drinking water twice at morning and evening with meals for 12 weeks. At the random assignment day (0 day), the efficacy evaluation items and safety evaluation items such as DXA measurement and the like were checked, and the evaluation items were also checked through hospital outpatient visit at 4 weeks, 8 weeks and 12 weeks from the day of beginning administration of test products. In addition, during the human application test, the usual physical activity of subjects was investigated using Korean version of International Physical Activity Questionnaire (IPAQ). During the human application test period, the subjects were trained to maintain the activity amount being similar to normal physical activity. At each hospital outpatient visit, the amount of meal intake was examined by the recording board made by the subjects. The subjects were trained to maintain the amount of meal intake being similar to the usual amount with avoiding overeating condition. At the time of second hospital visit (visit 2) and final hospital visit (visit 5), the body fat ratio and body fat were measured using prodigy DXA of U.S. Lunar Company. For the body fat measured by DXA, after calculating the change of the body fat after 12 weeks compared to the base time, technical statistics (mean, standard deviation, median value, minimum value, maximum value) were obtained. The comparative statistic test for the three groups was performed using ANOVA or Kruscal-Wallis test by testing whether data were normally distributed. When there was a significant difference between the three groups, the multiple comparison was conducted through Tukey-Kramer method. In order to find out whether there was a difference in the mean change in a group, it was analyzed using Paired t-test or Wilcoxon's signed rank test."}, "[2]": {"parameters": "species or system human", "details": "in vivo"}, "[3]": {"assay": "Glucose index test (FBS, Insulin, HbA1c) on collected blood, human application test", "assay_type": "in vivo", "details": "for Glucose, 12 W, Mean / Glucose, 12 W, Median / HbA1, 12 W, Mean / HbA1, 12 W, Median / Insulin, 12 W, Mean / Insulin, 12 W, Median / Glucose, Difference (12 W vs baseline) / Insulin, Difference (12 W vs baseline): ITT 33", "source_text": "After conducting a screening test for those who heard the detailed description of the purpose and research method of the present example and agreed in writing as subjects, those who met the selection/exclusion criteria were selected. The specific selection criteria are as follows, and the final selected subjects are 99 men and women who are overweight or obese, and the demographic information of the selected subjects is shown in the following Table 1. Ninety nine (99) subjects were randomly assigned to the high-dose group, low-dose group or control group, with including 33 subjects in each test group. In three test groups, the products were mixed in 100 ml of water and were administered orally twice a day. As the daily dose for one test subject, 12 g allulose in the high-dose group, 6 g allulose and 6 g anhydrous glucose in the low-dose group, and 12 g anhydrous glucose in the control group were divided and provided twice a day. It was administered from the day after the random assignment day (0 day), and was taken with drinking water twice at morning and evening with meals for 12 weeks. At the time of screening hospital visit (visit1), visit2 and final visit (visit5), FBS, Insulin, and HbAlc test was conducted for the collected blood. After calculating the average change of the glucose index (FBS, Insulin, HbAlc) after 12 weeks compared to the base time, technical statistics (mean, standard deviation, median value, minimum value, maximum value) were obtained. The comparative statistic test for the three groups was performed using ANOVA or Kruscal-Wallis test by testing whether data were normally distributed. When there was a significant difference between the three groups, the multiple comparisons were conducted through Tukey-Kramer method. In order to find out whether there was a difference in the mean change in a group, it was analyzed using Paired t-test or Wilcoxon's signed rank test."}, "[4]": {"details": "high-dose group: allulose 12 g/d oral, 12 weeks"}, "[5]": {"details": "high-dose group: allulose 12 g/d oral"}, "[6]": {"details": "low-dose group: allulose 6 g/d + anhydrous glucose 6 g/d oral, 12 weeks"}, "[7]": {"details": "low-dose group: allulose 6 g/d + anhydrous glucose 6 g/d oral"}},
  "data": [
    {"smiles": "O=C(CO)C(O)C(O)C(O)CO", "note": "(centres unmarked) [allulose]", "values": [
      {"measurement": "lean body mass before and after administration", "setting": "[1]; allulose administration groups, 12 weeks, control reduced by 0.61 kg", "value": "did not show a difference before and after administration"},
      {"measurement": "body fat before and after administration", "setting": "[1]; allulose low-dose group and high-dose group, 12 weeks", "value": "slightly increased, but there was no statistically significant difference before and after administration"},
      {"measurement": "body fat accumulation and muscle mass reduction", "setting": "[1]; conclusion from analysis of body components, 12 weeks", "value": "inhibited"},
      {"measurement": "Lean, 12 W, Mean", "setting": "[1]; [4]", "value": 40.24, "unit": "kg"},
      {"measurement": "Fat, 12 W, Mean", "setting": "[1]; [4]", "value": 26.31, "unit": "kg"},
      {"measurement": "Fat, Difference (average change at 12 weeks compared to base time)", "setting": "[1]; [5]", "value": "0.25 ± 1.34", "unit": "kg"},
      {"measurement": "Lean, Difference (12 W vs baseline)", "setting": "[1]; [5]", "value": "-0.22 ± 1.08", "unit": "kg"},
      {"measurement": "Lean, 12 W, Mean", "setting": "[1]; [6]", "value": 42.26, "unit": "kg"},
      {"measurement": "Fat, 12 W, Mean", "setting": "[1]; [6]", "value": 26.80, "unit": "kg"},
      {"measurement": "Fat, Difference (average change at 12 weeks compared to base time)", "setting": "[1]; [7]", "value": "0.16 ± 0.91", "unit": "kg"},
      {"measurement": "Lean, Difference (12 W vs baseline)", "setting": "[1]; [7]", "value": "0.05 ± 0.89", "unit": "kg"},
      {"measurement": "diastolic blood pressure and pulse rate", "setting": "[2]", "value": "did not showed statistically significant difference between three groups"},
      {"measurement": "hypoglycemic effect (Glucose, Insulin, HbA1c)", "setting": "[3]; high- and low-dose groups, 12 weeks, subjects with normal blood sugar", "value": "no hypoglycemic effect"},
      {"measurement": "Glucose, 12 W, Mean", "setting": "[3]; [4]", "value": 94.58, "unit": "mg/dL"},
      {"measurement": "Glucose, 12 W, Median", "setting": "[3]; [4]", "value": 94.00, "unit": "mg/dL"},
      {"measurement": "HbA1, 12 W, Mean", "setting": "[3]; [4]", "value": 5.66, "unit": "%"},
      {"measurement": "HbA1, 12 W, Median", "setting": "[3]; [4]", "value": 5.6, "unit": "%"},
      {"measurement": "Insulin, 12 W, Mean", "setting": "[3]; [4]", "value": 8.7, "unit": "µIU/mL"},
      {"measurement": "Insulin, 12 W, Median", "setting": "[3]; [4]", "value": 7.5, "unit": "µIU/mL"},
      {"measurement": "Glucose, Difference (12 W vs baseline)", "setting": "[3]; [5]", "value": "-0.12 ± 8.35", "unit": "mg/dL"},
      {"measurement": "Insulin, Difference (12 W vs baseline)", "setting": "[3]; [5]", "value": "1.75 ± 5.33", "unit": "µIU/mL"},
      {"measurement": "Glucose, 12 W, Mean", "setting": "[3]; [6]", "value": 97.18, "unit": "mg/dL"},
      {"measurement": "Glucose, 12 W, Median", "setting": "[3]; [6]", "value": 97.00, "unit": "mg/dL"},
      {"measurement": "HbA1, 12 W, Mean", "setting": "[3]; [6]", "value": 5.64, "unit": "%"},
      {"measurement": "HbA1, 12 W, Median", "setting": "[3]; [6]", "value": 5.6, "unit": "%"},
      {"measurement": "Insulin, 12 W, Mean", "setting": "[3]; [6]", "value": 9.18, "unit": "µIU/mL"},
      {"measurement": "Insulin, 12 W, Median", "setting": "[3]; [6]", "value": 7.1, "unit": "µIU/mL"},
      {"measurement": "Glucose, Difference (12 W vs baseline)", "setting": "[3]; [7]", "value": "2.42 ± 10.10", "unit": "mg/dL"},
      {"measurement": "Insulin, Difference (12 W vs baseline)", "setting": "[3]; [7]", "value": "1.27 ± 5.15", "unit": "µIU/mL"}
    ]}
  ]
}
